Measurements from US5484801A, “Pharmaceutical composition for inhibiting HIV protease” (Abbott Laboratories, priority 1995, dated 1996).
Entries after “also recorded” stand apart in the source; their conditions may differ.

How the values were obtained:
[1] = Oral bioavailability in dogs, Protocol A (solid dosage forms); type: in vivo, beagle dogs; conditions: dog, plasma; unformulated solid in a capsule dosage form, 5 mg/kg oral dose in dogs
Experimental: Each dog received a single solid dosage form corresponding to a 5 mg/kg dose of the drug.

[2] = target: HIV-1 protease (HIV-1 M:B_HXB2R, UniProt P04585); type: biochemical
[3] = test system: HIV-2 protease; assay: Inhibition of HIV-2 protease; type: biochemical; conditions: statement in words

| SMILES | bioavailability [1] | inhibition of HIV-1 protease [2] | inhibition of HIV-2 protease [3] | inhibition of HIV-2 protease ([3]; listed as formula II) |
| --- | --- | --- | --- | --- |
| CC(C)c1nc(CN(C)C(=O)N[C@H](C(=O)N[C@@H](Cc2ccccc2)C[C@H](O)[C@H](Cc2ccccc2)NC(=O)OCc2cncs2)C(C)C)cs1 [Compound III, (2S,3S,5S)-5-(N-(N-((N-Methyl-N-((2-isopropyl-4-thiazolyl)methyl)-amino)carbonyl)valinyl)amino)-2-(N-((5-thiazolyl)methoxycarbonyl)amino)-1,6-diphenyl-3-hydroxyhexane] | < 2% | inhibitors | inhibitors | – |
| CC(C)c1nc(CN(C)C(=O)NC(C(=O)NC(Cc2ccccc2)CC(O)C(Cc2ccccc2)NC(=O)OCc2cncs2)C(C)C)cs1 (stereo not drawn) [Compound II] | – | especially effective; also recorded: inhibitors | inhibitors | especially effective |
